# According to paper PMC12680861, “Comparative analysis of LJ-4378 and tirzepatide in mouse models of obesity and weight regain” (Archives of Pharmacal Research, 2025):
# Legend:
# plasma protein [1] = experiment: Plasma protein binding, Rapid Equilibrium Dialysis (RED); format: in vitro ADME, human; conditions: 10 μM, 37 °C, 4 h
# Procedure: (§1) The plasma protein binding of LJ-4378 was evaluated using the Rapid Equilibrium Dialysis (RED) method with 100% plasma from human (Biochemed, BC22089NCP), rat (Innovative, IRT-N), and mouse (Biochemed, 029-APSC-MP), all treated with sodium citrate as an anticoagulant. The RED device (ThermoFisher Scientific, #89809) and reusable base plate (ThermoFisher Scientific, #89811) were used with an 8 K MWCO membrane. Test compounds were added to plasma at a final concentration of 10 μM and dialyzed against phosphate-buffered saline (PBS, pH 7.4; Hyclone, #SH30256.01) at 37 °C for 4 h. After incubation, equal volumes of plasma and PBS samples were mixed with blank PBS and blank plasma, respectively, followed by the addition of acetonitrile containing chlorpropamide (TRC, C424800) as the internal standard. […] All measurements were performed in duplicate with a deviation of less than 15% between replicates. The free fraction (% Free) was calculated as (concentration in buffer chamber/concentration in plasma chamber) × 100, and the bound fraction (% Bound) was obtained by subtracting % Free from 100. In cases where measurements were unstable, deviations greater than 15% were allowed.
# [2] = Pharmacokinetic study in mice, single I.V. or P.O. administration; format: in vivo, male C57BL/6 J mice; conditions: for F (oral bioavailability): dose-normalized AUCinf
# Procedure: The pharmacokinetics of LJ-4378 were evaluated in male C57BL/6 J mice following a single administration by either the oral (P.O.) or intravenous (I.V.) route. For P.O., LJ-4378 was administered at 10, 20, or 50 mg/kg in a vehicle composed of 0.5 mg/mL L-ascorbic acid, 5% DMSO, 20% PEG400, 20% Tween 80, and 55% of 0.1% copovidone. For I.V. administration, a 2 mg/kg dose was delivered via tail vein injection in a vehicle consisting of 5% DMSO, 25% PEG400, and 70% sterile water. Blood samples (200 μL) were collected at 5, 15, and 30 min and 1, 2, 4, 8, 12, and 24 h post-dose for the P.O. groups, and at 2, 5, 15, and 30 min and 1, 2, 4, 8, and 12 h post-dose for the I.V. group. Plasma was separated by centrifugation, and the concentrations of LJ-4378 were determined using a validated LC–MS/MS method. Pharmacokinetic parameters were calculated using non-compartmental analysis with Phoenix WinNonlin (v8.3), and included Cmax, Tmax, AUClast, AUCinf, t1/2, and clearance (Maclean et al. [2011]). Oral bioavailability was calculated using dose-normalized AUCinf values.
# plasma protein [3] = experiment: Plasma protein binding, Rapid Equilibrium Dialysis (RED); format: in vitro ADME, mouse; conditions: 10 μM, 37 °C, 4 h
# Procedure: as §1
# [4] = Tissue partition coefficient extrapolated from rat via plasma unbound fractions
# Procedure: When calculating KP,T for LJ-4378 in […], Eq. (1) was used:1 KP,T=CT,ss/Cp,ss where CT,ss and Cp,ss represented the tissue and plasma concentrations at 270 min after the initiation of LJ-4378 infusion. In addition, under the free-drug hypothesis, the KP,T can be expressed as the ratio of the unbound fractions in plasma ( fup ) and tissue ( fu,T ) [Eq. (2)]. Given similar interspecies values of tissue unbound fraction (Poulin and Theil [2000]), the rat KP,T values were extrapolated to those in mice and humans using the following Eq. (3):2 KP,T=fup/fu,T 3 KP,T,extrapolated=KP,T,rat×fup/fup,rat
# CYP2D6 = CYP2D6 (Homo sapiens, UniProt P10635); conditions: microsomes, 10 µM
# Procedure: (§2) Cytochrome 450 (CYP) enzyme inhibition was evaluated using pooled human liver microsomes (Corning, #452117). […] Substrates and corresponding metabolites for each CYP isoform were as follows: phenacetin and acetaminophen for CYP1A2 (Sigma Aldrich, #77440 and A7085, respectively), diclofenac and 4'-hydroxydiclofenac for CYP2C9 (Sigma Aldrich, D6899; TRC, H825225), S-mephenytoin and 4'-hydroxymephenytoin for CYP2C19 (Sigma Aldrich, UC175; Santacruz, sc210197), dextromethorphan and dextrorphan for CYP2D6 (Sigma Aldrich, #81091 and UC205), and midazolam and 1'-hydroxymidazolam for CYP3A4 (KFDA; Sigma Aldrich, UC430).
# (§3) Samples were preincubated at 37 °C for 5 min, and the reaction was initiated by the addition of the NADPH regeneration system, followed by incubation at 37 °C for 15 min. The reaction was terminated by adding acetonitrile containing the internal standard, and centrifuged at 15,000 rpm for 5 min at 4 °C. The supernatant was analyzed by LC–MS/MS using a Nexera XR system (Shimadzu, Japan) coupled with a TSQ Vantage mass spectrometer (Thermo, USA). […] Metabolites were quantified in multiple reaction monitoring (MRM) mode with Xcalibur software (version 4.4).
# (§4) All experiments were performed in duplicate with variability ≤ 15%. The percent activity of each CYP enzyme was calculated based on metabolite formation relative to the no-inhibitor control.
# plasma protein [5] = experiment: Plasma protein binding, Rapid Equilibrium Dialysis (RED); format: in vitro ADME, rat; conditions: 10 μM, 37 °C, 4 h
# Procedure: as §1
# CYP2C19 = CYP2C19 (Homo sapiens, UniProt P33261); experiment: CYP enzyme inhibition in pooled human liver microsomes (S-mephenytoin substrate); conditions: microsomes, 10 µM
# Procedure: as §2, §3, §4
# Chain of CYP2C19 (P33261 whole entry): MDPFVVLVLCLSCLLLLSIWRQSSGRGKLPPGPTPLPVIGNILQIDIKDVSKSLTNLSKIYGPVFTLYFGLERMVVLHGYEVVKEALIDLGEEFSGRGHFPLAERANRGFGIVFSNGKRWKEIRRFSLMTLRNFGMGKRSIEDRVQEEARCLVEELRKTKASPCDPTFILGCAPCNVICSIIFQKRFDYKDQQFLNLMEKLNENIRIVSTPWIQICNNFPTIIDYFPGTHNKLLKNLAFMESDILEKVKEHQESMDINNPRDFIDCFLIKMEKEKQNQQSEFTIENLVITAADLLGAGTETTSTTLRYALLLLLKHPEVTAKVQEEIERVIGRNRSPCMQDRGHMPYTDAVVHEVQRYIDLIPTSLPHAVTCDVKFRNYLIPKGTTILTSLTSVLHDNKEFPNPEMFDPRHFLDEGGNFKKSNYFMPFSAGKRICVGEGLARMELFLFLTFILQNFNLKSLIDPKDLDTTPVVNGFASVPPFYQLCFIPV
# Chain of CYP2D6 (P10635 whole entry, canonical isoform): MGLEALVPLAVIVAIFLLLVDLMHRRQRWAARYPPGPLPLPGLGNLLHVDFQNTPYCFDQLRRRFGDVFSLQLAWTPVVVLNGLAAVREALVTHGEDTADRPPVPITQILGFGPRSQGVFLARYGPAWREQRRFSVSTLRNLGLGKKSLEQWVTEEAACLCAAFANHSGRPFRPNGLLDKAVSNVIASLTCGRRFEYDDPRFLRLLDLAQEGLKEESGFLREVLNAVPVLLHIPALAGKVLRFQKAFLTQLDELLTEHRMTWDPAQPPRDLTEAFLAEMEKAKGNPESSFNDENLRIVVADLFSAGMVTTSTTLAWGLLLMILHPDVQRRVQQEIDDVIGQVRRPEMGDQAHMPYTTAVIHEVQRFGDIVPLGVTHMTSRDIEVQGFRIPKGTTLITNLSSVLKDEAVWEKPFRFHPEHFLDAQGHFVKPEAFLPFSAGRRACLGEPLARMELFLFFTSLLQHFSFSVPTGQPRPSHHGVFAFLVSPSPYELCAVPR
smiles,measurement,setting,value
CCCCC#Cc1nc(N)c2ncn([C@@H]3SC[C@@H](O)[C@H]3O)c2n1 [LJ-4378],"Plasma free fraction (% Free), Human",plasma protein [1],30.1%
same,AUC0-t,[2]; I.V. 2.00 mg/kg,411.45 ng·h/mL
same,CL,[2]; I.V. 2.00 mg/kg,80.7 (mL/min)/kg
same,Cmax,[2]; I.V. 2.00 mg/kg,2395.23 ng/mL
same,Tmax,[2]; I.V. 2.00 mg/kg,1.8 min
same,t1/2,[2]; I.V. 2.00 mg/kg,27.6 min
same,AUC0-t,[2]; P.O. 10.00 mg/kg,1273.67 ng·h/mL
same,CL,[2]; P.O. 10.00 mg/kg,128.5 (mL/min)/kg
same,Cmax,[2]; P.O. 10.00 mg/kg,1220.57 ng/mL
same,Tmax,[2]; P.O. 10.00 mg/kg,4.8 min
same,t1/2,[2]; P.O. 10.00 mg/kg,158 min
same,F (oral bioavailability),[2]; P.O. 10.00 mg/kg,62.93%
same,AUC0-t,[2]; P.O. 20.00 mg/kg,3067.21 ng·h/mL
same,CL,[2]; P.O. 20.00 mg/kg,103.2 (mL/min)/kg
same,Cmax,[2]; P.O. 20.00 mg/kg,2401.74 ng/mL
same,Tmax,[2]; P.O. 20.00 mg/kg,15 min
same,t1/2,[2]; P.O. 20.00 mg/kg,233 min
same,F (oral bioavailability),[2]; P.O. 20.00 mg/kg,78.42%
same,AUC0-t,[2]; P.O. 50.00 mg/kg,8446.78 ng·h/mL
same,CL,[2]; P.O. 50.00 mg/kg,93.0 (mL/min)/kg
same,Cmax,[2]; P.O. 50.00 mg/kg,5307.60 ng/mL
same,Tmax,[2]; P.O. 50.00 mg/kg,30 min
same,t1/2,[2]; P.O. 50.00 mg/kg,187 min
same,F (oral bioavailability),[2]; P.O. 50.00 mg/kg,86.08%
same,"Plasma free fraction (% Free), Mouse",plasma protein [3],12.7%
same,"Steady state tissue partition coefficient (KP,T), Adipose",[4]; Humans (extrapolated),0.200
same,"Steady state tissue partition coefficient (KP,T), Brain",[4]; Humans (extrapolated),0.0443
same,"Steady state tissue partition coefficient (KP,T), Liver",[4]; Humans (extrapolated),1.04
same,"Steady state tissue partition coefficient (KP,T), Lungs",[4]; Humans (extrapolated),0.540
same,"Steady state tissue partition coefficient (KP,T), Adipose",[4]; Mice (extrapolated),0.197
same,"Steady state tissue partition coefficient (KP,T), Brain",[4]; Mice (extrapolated),0.0437
same,"Steady state tissue partition coefficient (KP,T), Liver",[4]; Mice (extrapolated),1.03
same,"Steady state tissue partition coefficient (KP,T), Lungs",[4]; Mice (extrapolated),0.533
same,% of control activity CYP2D6,CYP2D6,89.3%
same,"Plasma free fraction (% Free), Rat",plasma protein [5],29.7%
same,% of control activity CYP2C19,CYP2C19,85.3%
